Data as given in patent US10251854B2, “S-(carboxymethyl)-cysteine pharmaceutical compound and preparation method and use thereof” (Guangzhou Baiyunshan Pharmaceutical Holdings Co., Ltd. …, priority 2013, dated 2019).
Structures can show the parent of a compound that is named as a salt. Where two headings read alike, the source gives them in different places.

What was measured:
Water solubility = assay type: physicochemical
Description: (§1) In a preferred embodiment of the present invention, the S-(carboxymethyl)-L-cysteine ammonium salt monohydrate crystalline compound is a soluble double salt formed by the acidity of the carboxyl thereof and the alkalinity of the aqueous ammonia. […] In addition, the medicine, after being absorbed by the body, can be hydrolysed into S-(carboxymethyl)-L-cysteine and ammonium chloride with the effect of gastric acid, which can not only reduce the irritation of S-(carboxymethyl)-L-cysteine to the gastrointestinal tract, but also neutralize the excessive gastric acid. After the S-(carboxymethyl)-L-cysteine ammonium salt monohydrate crystal is hydrolysed, the S-(carboxymethyl)-L-cysteine in the body continues giving play to pharmacological effects thereof. At the same time, the ammonium chloride obtained from hydrolysis has chemical irritation to the mucous membrane, which can reflectively increase the amount of sputum to easily remove the sputum, and is conducive to removing a small amount of sputum which is difficult to be coughed out, thereby enhancing the sputum-resolving effect of the S-(carboxymethyl)-L-cysteine, and improving the curative effect. The S-(carboxymethyl)-L-cysteine ammonium salt is safe, has small side effect, and can be used for patients suffering from chronic obstructive pulmonary disease and the like to take for a long time.

[1] = pH value of 1% solution/suspension by pH meter; assay type: physicochemical; conditions: n=6
Description: as §1

[2] = Storage at room temperature (character, moisture absorption); assay type: physicochemical; conditions: stored for a period of time at room temperature
Description: The S-(carboxymethyl)-L-cysteine ammonium salt monohydrate crystals of the present invention have a relatively uniform particle size distribution.

[3] = Solubility in several solvents (25° C.); assay type: physicochemical
rat COPD model [4] = experiment: Rat COPD model: antioxidation indexes (GSH, SOD); assay type: in vivo; conditions: x ± SD
Experimental: (§2) 1.1 Preparation of Rat COPD Models
(§3) A method of establishing a rat COPD model by fumigation plus endotoxin lipopolysaccharide (LPS) endotracheal drop, which is commonly used at home and abroad at present was adopted. The period is 3 months (90 days). Specific method: on the 1st, the 15th, the 29th, the 43rd, the 57th, the 71st and the 85th days of the test, the rats were anesthetized with ethylether, the roots of tongues of the rats were pulled out, and LPS (200 ug/200 ul) was dripped through tracheas by bend gavage needle heads. The rats of the normal group were dripped with physiological saline of equal amount by the same method, and weren't fumigated. The rats of the other five groups were fumigated in a self-made fumigation bin. One side of the fumigation bin was externally connected with a negative pressure pump, and the top thereof was connected with a port for inserting cigarettes. With the negative press pump turned on, the cigarettes were lit, and the smoke of the cigarettes was absorbed into the fumigation bin. In order to prevent the animals from death caused by anoxia, 12 cigarettes were lit every time, and the lid of the fumigation bin was opened 20 min after fumigation for letting in fresh air. The operation was performed 1 h/3 times/day, with the LPS (200 ug/200 ul) being dripped through the tracheas by bend gavage needle heads.
(§4) 1.2 Pharmacological Intervention
(§5) The test was 90 days long. The pharmacological intervention was started from the 15th day, the rats of the positive group were perfused with carbocisteine, the rats of the low, medium and high test groups were perfused with different doses of test medicines, and the rats of the model group and the normal group were perfused with physiological saline of equal amount.
(§6) 1.3 Indexes Determination
(§7) Blood was taken from the orbit of each rat on the second day after the test was over, serum was separated, a complete stomach was cut and washed, lung tissue was preserved, the stomach and the right upper lung were left for pathobiology test, after the rest of the lung was subjected to lung tissue homogenate, the indexes of oxidization and antioxidation, the contents of lipid peroxide (LPO), malondialdehyde (MDA) and reduced glutathione (GSH), the activity of superoxide dismutase (SOD) and the concentration of inflammatory medium TNF-α, IL-8 and IL-6 were detected.

rat COPD model [5] = experiment: Rat COPD model: inflammation indexes (TNF-α, IL-8, IL-6); assay type: in vivo; conditions: x ± SD
Experimental: as §2, §3, §4, §5, §6, §7

rat COPD model [6] = experiment: Rat COPD model: oxidization indexes (LPO, MDA); assay type: in vivo; conditions: x ± SD
Experimental: as §2, §3, §4, §5, §6, §7

gastric mucosa of rats = experiment: Rat COPD model: pathological changes of stomachs; assay type: in vivo; conditions: perfused from the 15th day of the 90 day test
Experimental: A method of establishing a rat COPD model by fumigation plus endotoxin lipopolysaccharide (LPS) endotracheal drop, which is commonly used at home and abroad at present was adopted. The period is 3 months (90 days). Specific method: on the 1st, the 15th, the 29th, the 43rd, the 57th, the 71st and the 85th days of the test, the rats were anesthetized with ethylether, the roots of tongues of the rats were pulled out, and LPS (200 ug/200 ul) was dripped through tracheas by bend gavage needle heads. The rats of the normal group were dripped with physiological saline of equal amount by the same method, and weren't fumigated. The rats of the other five groups were fumigated in a self-made fumigation bin. […]
as §7

[7] = test system: chronic obstructive pulmonary disease; conditions: 1500 mg/d, 12 months; cited from earlier work
[8] = test system: patients suffering from COPD; conditions: 1500 mg/d, 12 months; cited from earlier work
[9] = test system: patients suffering from COPD; conditions: 142 patients; 1500 mg/d, 12 months; cited from earlier work

With `N[C@@H](CSCC(=O)O)C(=O)O` [L-ammonium, S-(carboxymethyl)-L-cysteine ammonium salt monohydrate] the water solubility (Water solubility; listed as S-(carboxymethyl)-L-cysteine ammonium salt monohydrate crystal, ammonium salt monohydrate) was “extremely easily soluble in water”, the pH value ([1]; 1% compound, pH meter) was 6.60±0.36 and the absorption of moisture [2] was “insusceptible to absorption of moisture”. For the same molecule, the “character changes after storage” value [2] was “no obvious character changes”, the Solubility ([3]; Absolute ethyl alcohol) was “Very slightly soluble” and the Solubility ([3]; Acetone) was “Very slightly soluble”. For the same molecule, the Solubility ([3]; Acetonitrile) was “Very slightly soluble”, the Solubility ([3]; Isopropanol) was “Very slightly soluble” and the Solubility ([3]; Methanol) was “Very slightly soluble”. For the same molecule, the Solubility ([3]; N,N-Dimethylformamide) was “Very slightly soluble”, the “GSH Lung tissue” value (rat COPD model [4]; high dose group) was 141.69 ± 28.40 µmol/L and the “GSH Serum” value (rat COPD model [4]; high dose group) was 232.93 ± 40.49 µmol/L. The “SOD Lung tissue” value (rat COPD model [4]; high dose group) was 77.56 ± 18.09 U/mL, the “SOD Serum” value (rat COPD model [4]; high dose group) was 140.69 ± 32.13 U/mL and the “GSH Lung tissue” value (rat COPD model [4]; low dose group) was 113.59 ± 24.32 µmol/L. The “GSH Serum” value (rat COPD model [4]; low dose group) was 140.64 ± 19.66 µmol/L, the “SOD Lung tissue” value (rat COPD model [4]; low dose group) was 60.38 ± 16.04 U/mL and the “SOD Serum” value (rat COPD model [4]; low dose group) was 90.80 ± 15.13 U/mL. The “GSH Lung tissue” value (rat COPD model [4]; medium dose group) was 124.19 ± 30.78 µmol/L, the “GSH Serum” value (rat COPD model [4]; medium dose group) was 175.61 ± 31.11 µmol/L and the “SOD Lung tissue” value (rat COPD model [4]; medium dose group) was 70.71 ± 11.16 U/mL. For the same molecule, the “SOD Serum” value (rat COPD model [4]; medium dose group) was 102.98 ± 23.26 U/mL, the “IL-6 Lung tissue” value (rat COPD model [5]; high dose group) was 9.28 ± 4.49 pg/mL and the “IL-6 Serum” value (rat COPD model [5]; high dose group) was 5.83 ± 1.51 pg/mL. For the same molecule, the “IL-8 Lung tissue” value (rat COPD model [5]; high dose group) was 8.17 ± 1.06 pg/mL, the “IL-8 Serum” value (rat COPD model [5]; high dose group) was 5.36 ± 1.51 pg/mL and the “TNF-α Lung tissue” value (rat COPD model [5]; high dose group) was 15.15 ± 4.20 pg/mL. The “TNF-α Serum” value (rat COPD model [5]; high dose group) was 13.02 ± 5.32 pg/mL, the “IL-6 Lung tissue” value (rat COPD model [5]; low dose group) was 14.72 ± 5.51 pg/mL and the “IL-6 Serum” value (rat COPD model [5]; low dose group) was 7.02 ± 3.30 pg/mL. For the same molecule, the “IL-8 Lung tissue” value (rat COPD model [5]; low dose group) was 9.97 ± 1.24 pg/mL, the “IL-8 Serum” value (rat COPD model [5]; low dose group) was 7.90 ± 2.16 pg/mL and the “TNF-α Lung tissue” value (rat COPD model [5]; low dose group) was 20.60 ± 9.60 pg/mL. The “TNF-α Serum” value (rat COPD model [5]; low dose group) was 17.98 ± 3.94 pg/mL, the “IL-6 Lung tissue” value (rat COPD model [5]; medium dose group) was 12.91 ± 2.47 pg/mL and the “IL-6 Serum” value (rat COPD model [5]; medium dose group) was 6.24 ± 2.12 pg/mL. The “IL-8 Lung tissue” value (rat COPD model [5]; medium dose group) was 8.66 ± 2.54 pg/mL, the “IL-8 Serum” value (rat COPD model [5]; medium dose group) was 6.30 ± 2.17 pg/mL and the “TNF-α Lung tissue” value (rat COPD model [5]; medium dose group) was 19.98 ± 8.78 pg/mL. For the same molecule, the “TNF-α Serum” value (rat COPD model [5]; medium dose group) was 15.11 ± 4.38 pg/mL, the “LPO Lung tissue” value (rat COPD model [6]; high dose group) was 13.51 ± 1.66 nmol/mL and the “LPO Serum” value (rat COPD model [6]; high dose group) was 3.22 ± 0.85 nmol/mL. For the same molecule, the “MDA Lung tissue” value (rat COPD model [6]; high dose group) was 3.68 ± 0.87 µmol/mL, the “MDA Serum” value (rat COPD model [6]; high dose group) was 5.88 ± 1.26 µmol/mL and the “LPO Lung tissue” value (rat COPD model [6]; low dose group) was 16.24 ± 2.32 nmol/mL. The “LPO Serum” value (rat COPD model [6]; low dose group) was 4.75 ± 1.30 nmol/mL, the “MDA Lung tissue” value (rat COPD model [6]; low dose group) was 4.03 ± 1.27 µmol/mL and the “MDA Serum” value (rat COPD model [6]; low dose group) was 7.28 ± 1.33 µmol/mL. For the same molecule, the “LPO Lung tissue” value (rat COPD model [6]; medium dose group) was 15.58 ± 2.73 nmol/mL, the “LPO Serum” value (rat COPD model [6]; medium dose group) was 3.77 ± 1.15 nmol/mL and the “MDA Lung tissue” value (rat COPD model [6]; medium dose group) was 3.88 ± 0.59 µmol/mL. For the same molecule, the “MDA Serum” value (rat COPD model [6]; medium dose group) was 6.20 ± 3.23 µmol/mL.

With `N[C@@H](CSCC(=O)O)C(=O)O` [carbocisteine, S-(carboxymethyl)-L-cysteine, reference compound] the water solubility (Water solubility) was “poorer water solubility”, the pH ([1]; 1% suspension per Chinese Pharmacopoeia (2010 Edition)) was 2.93±0.20 and the “Pathological changes of stomachs / irritation to the gastrointestinal tract” value (gastric mucosa of rats) was “mild irritations such as mild hyperaemia and edema, and larger inflammatory cell infiltration”. The “Pathological changes of stomachs / irritation to the gastrointestinal tract” value (gastric mucosa of rats; listed as positive group) was “mild edema and hyperemia and serious inflammatory cell infiltration in the gastric mucosa layers”, the “annual acute morbidity per person reduced by” value [7] was 24.5% and the “frequency of catching colds and acute exacerbation of COPD” value [8] was “the frequency of catching colds is reduced and the acute exacerbation of COPD is relieved”. The “GSH Lung tissue” value (rat COPD model [4]; positive group) was 107.26 ± 23.52 µmol/L, the “GSH Serum” value (rat COPD model [4]; positive group) was 132.31 ± 24.04 µmol/L and the “SOD Lung tissue” value (rat COPD model [4]; positive group) was 62.28 ± 15.12 U/mL. For the same molecule, the “SOD Serum” value (rat COPD model [4]; positive group) was 96.16 ± 23.03 U/mL, the “IL-6 Lung tissue” value (rat COPD model [5]; positive group) was 14.24 ± 6.26 pg/mL and the “IL-6 Serum” value (rat COPD model [5]; positive group) was 8.13 ± 2.87 pg/mL. For the same molecule, the “IL-8 Lung tissue” value (rat COPD model [5]; positive group) was 10.91 ± 2.30 pg/mL, the “IL-8 Serum” value (rat COPD model [5]; positive group) was 7.87 ± 3.08 pg/mL and the “TNF-α Lung tissue” value (rat COPD model [5]; positive group) was 25.17 ± 8.28 pg/mL. The “TNF-α Serum” value (rat COPD model [5]; positive group) was 18.37 ± 4.55 pg/mL, the “prevention of acute COPD” value [9] was “prevented from acute COPD” and the “LPO Lung tissue” value (rat COPD model [6]; positive group) was 17.44 ± 2.43 nmol/mL. For the same molecule, the “LPO Serum” value (rat COPD model [6]; positive group) was 5.12 ± 1.09 nmol/mL, the “MDA Lung tissue” value (rat COPD model [6]; positive group) was 4.76 ± 0.70 µmol/mL and the “MDA Serum” value (rat COPD model [6]; positive group) was 7.34 ± 2.19 µmol/mL.
